# Assay results reported in patent US8815872B2, “Macrocyclics pyrimidines as aurora kinase inhibitors” (Merck Patent GmbH, priority 2008, dated 2014).
# Assays:
# Assay in all cases: Other kinases, inhibition at 1 μM (Table 3)
# Type in all cases: biochemical
# MAPK1 = tested on: MAPK1
# Method: (§1) The Aurora and other kinase assays described here were performed on two Caliper Life Sciences systems, the LC3000 and the Desktop Profiler. These provide data on enzyme activity via measurement of the relative amounts of phosphorylated or unphosphorylated fluorescently labelled substrate peptide at the end of an enzymatic reaction. These different states of peptide are resolved by applying a potential difference across the sample. The presence of a charged phosphate group on the product (as opposed to the substrate) causes a different peptide mobility between the two peptides. This is visualized by excitation of a fluorescent label on the substrate and product peptides and represented as peaks within the analysis software.
# (§2) The Desktop Profiler utilizes the same principal as the LC 3000 for calculating percentage conversion of a substrate to product. Caliper Life Sciences provided proprietary flash frozen pre-made 384 well plates containing selected kinases. Each column in the 384 well plate contained a particular selected kinase. A second plate, the ‘substrate plate’ contained a mix of fluorescently labeled peptide substrate and ATP. These were arranged in columns so that transfer for substrate plate to enzyme plate provided the correct enzyme with the correct substrate/ATP concentration.
# (§3) Compounds were added to a thawed enzyme plate in the desired format, in single concentrations. Reactions were initiated by transfer of the ubstrate/ATP mix from the substrate plate. The enzyme plate was incubated for 90 mins at 25 °C. The reaction was stopped by addition of […] of Stop Buffer (100 mM HEPES pH 7.5, 0.015% Brij-35, 10 mM EDTA (Sigma, E7889)).
# (§4) Plates were read in a manner identical to that of the LC3000, and the ratio between substrate and product peaks provided the activity of the enzyme in that well. This was best represented by a plate heat map which colors each well by percent inhibition as compared to positive and negative controls (no inhibitors and no ATP respectively).
# CHK1 = target: T1, CHK1 (Homo sapiens, UniProt O14757)
# T1 construct: purchased Caliper Life Sciences
# Method: as §1, §2, §3, §4
# IRR = target: T2, IRR (Homo sapiens, UniProt P14616)
# T2 construct: purchased Caliper Life Sciences
# Method: as §1, §2, §3, §4
# IKK-epsilon = target: T3, IKK-epsilon (Homo sapiens, UniProt Q14164)
# T3 construct: purchased Caliper Life Sciences
# Method: as §1, §2, §3, §4
# MST4 = target: T4, MST4 (Homo sapiens, UniProt Q9P289)
# T4 construct: purchased Caliper Life Sciences
# Method: as §1, §2, §3, §4
# PAK5 = target: T5, PAK5 (Homo sapiens, UniProt Q9P286)
# T5 construct: purchased Caliper Life Sciences
# Method: as §1, §2, §3, §4
# PAK4 = target: T6, PAK4 (Homo sapiens, UniProt O96013)
# T6 construct: purchased Caliper Life Sciences
# Method: as §1, §2, §3, §4
# MAPKAP-K1-alpha = target: T7, MAPKAP-K1-alpha (Homo sapiens, UniProt Q15418)
# T7 construct: purchased Caliper Life Sciences
# Method: as §1, §2, §3, §4
# PKC-zeta = target: T8, PKC-zeta (Homo sapiens, UniProt Q05513)
# T8 construct: purchased Caliper Life Sciences
# T8 sequence (Q05513 whole entry): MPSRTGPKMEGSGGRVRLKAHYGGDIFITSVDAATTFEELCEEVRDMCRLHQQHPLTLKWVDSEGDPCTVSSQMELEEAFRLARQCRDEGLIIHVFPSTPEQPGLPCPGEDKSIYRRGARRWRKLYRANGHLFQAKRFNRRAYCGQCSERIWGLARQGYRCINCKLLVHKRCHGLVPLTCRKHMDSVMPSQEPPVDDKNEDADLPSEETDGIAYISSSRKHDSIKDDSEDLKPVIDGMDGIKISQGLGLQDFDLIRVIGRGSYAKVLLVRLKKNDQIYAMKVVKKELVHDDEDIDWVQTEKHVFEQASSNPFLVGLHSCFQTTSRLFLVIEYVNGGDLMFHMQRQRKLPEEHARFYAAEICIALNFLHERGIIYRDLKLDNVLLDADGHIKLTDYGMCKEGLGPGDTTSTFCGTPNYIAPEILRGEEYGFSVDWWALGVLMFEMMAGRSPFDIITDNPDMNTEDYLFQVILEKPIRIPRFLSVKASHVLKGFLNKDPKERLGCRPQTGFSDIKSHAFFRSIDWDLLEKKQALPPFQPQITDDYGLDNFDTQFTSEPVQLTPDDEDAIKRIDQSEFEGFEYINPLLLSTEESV
# Method: as §1, §2, §3, §4
# SAPK2-alpha = target: T9, SAPK2-alpha (Homo sapiens, UniProt Q16539)
# T9 construct: purchased Caliper Life Sciences
# T9 sequence (Q16539 whole entry): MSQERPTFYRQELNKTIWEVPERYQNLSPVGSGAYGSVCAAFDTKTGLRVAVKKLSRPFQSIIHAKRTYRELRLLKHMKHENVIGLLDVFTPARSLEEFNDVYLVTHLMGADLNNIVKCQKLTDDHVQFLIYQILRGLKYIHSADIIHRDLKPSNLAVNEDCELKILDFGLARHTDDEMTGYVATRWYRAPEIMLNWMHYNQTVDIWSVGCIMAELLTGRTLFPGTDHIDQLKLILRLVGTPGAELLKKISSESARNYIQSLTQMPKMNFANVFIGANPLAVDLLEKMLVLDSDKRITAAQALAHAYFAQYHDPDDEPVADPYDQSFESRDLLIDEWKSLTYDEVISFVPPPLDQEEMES
# Method: as §1, §2, §3, §4
# PKD2 = target: T10, PKD2 (Homo sapiens, UniProt Q9BZL6)
# T10 construct: purchased Caliper Life Sciences
# T10 sequence (Q9BZL6 whole entry): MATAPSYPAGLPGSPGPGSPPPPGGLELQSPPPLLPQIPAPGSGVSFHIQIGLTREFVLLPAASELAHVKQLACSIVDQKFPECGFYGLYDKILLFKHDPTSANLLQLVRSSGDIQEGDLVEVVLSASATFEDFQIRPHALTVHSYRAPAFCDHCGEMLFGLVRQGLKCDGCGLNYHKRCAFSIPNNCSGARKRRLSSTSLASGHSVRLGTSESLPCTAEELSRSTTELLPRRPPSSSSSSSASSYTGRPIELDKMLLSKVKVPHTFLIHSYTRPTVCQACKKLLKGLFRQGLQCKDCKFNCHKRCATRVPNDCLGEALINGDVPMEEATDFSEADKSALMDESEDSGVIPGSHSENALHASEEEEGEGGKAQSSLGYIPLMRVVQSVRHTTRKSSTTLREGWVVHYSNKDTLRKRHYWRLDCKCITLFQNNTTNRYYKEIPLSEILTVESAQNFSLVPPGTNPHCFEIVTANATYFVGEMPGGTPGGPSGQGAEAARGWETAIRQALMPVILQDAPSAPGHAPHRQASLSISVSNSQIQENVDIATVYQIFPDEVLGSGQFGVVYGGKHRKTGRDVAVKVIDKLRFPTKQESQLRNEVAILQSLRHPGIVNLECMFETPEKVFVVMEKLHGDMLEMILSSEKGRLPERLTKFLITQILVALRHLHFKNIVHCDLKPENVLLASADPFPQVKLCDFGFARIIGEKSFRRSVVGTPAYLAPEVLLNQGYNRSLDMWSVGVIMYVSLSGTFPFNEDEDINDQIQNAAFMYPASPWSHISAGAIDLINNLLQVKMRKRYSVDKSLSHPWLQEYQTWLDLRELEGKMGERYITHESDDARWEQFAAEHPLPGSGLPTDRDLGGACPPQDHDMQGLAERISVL
# Method: as §1, §2, §3, §4
# Pim-3 = target: T11, Pim-3 (Homo sapiens, UniProt Q86V86)
# T11 construct: purchased Caliper Life Sciences
# Method: as §1, §2, §3, §4
# FGFR1 = target: T12, FGFR1 (Homo sapiens, UniProt P11362)
# T12 construct: purchased Caliper Life Sciences
# T12 sequence (P11362 22-822, species assumed): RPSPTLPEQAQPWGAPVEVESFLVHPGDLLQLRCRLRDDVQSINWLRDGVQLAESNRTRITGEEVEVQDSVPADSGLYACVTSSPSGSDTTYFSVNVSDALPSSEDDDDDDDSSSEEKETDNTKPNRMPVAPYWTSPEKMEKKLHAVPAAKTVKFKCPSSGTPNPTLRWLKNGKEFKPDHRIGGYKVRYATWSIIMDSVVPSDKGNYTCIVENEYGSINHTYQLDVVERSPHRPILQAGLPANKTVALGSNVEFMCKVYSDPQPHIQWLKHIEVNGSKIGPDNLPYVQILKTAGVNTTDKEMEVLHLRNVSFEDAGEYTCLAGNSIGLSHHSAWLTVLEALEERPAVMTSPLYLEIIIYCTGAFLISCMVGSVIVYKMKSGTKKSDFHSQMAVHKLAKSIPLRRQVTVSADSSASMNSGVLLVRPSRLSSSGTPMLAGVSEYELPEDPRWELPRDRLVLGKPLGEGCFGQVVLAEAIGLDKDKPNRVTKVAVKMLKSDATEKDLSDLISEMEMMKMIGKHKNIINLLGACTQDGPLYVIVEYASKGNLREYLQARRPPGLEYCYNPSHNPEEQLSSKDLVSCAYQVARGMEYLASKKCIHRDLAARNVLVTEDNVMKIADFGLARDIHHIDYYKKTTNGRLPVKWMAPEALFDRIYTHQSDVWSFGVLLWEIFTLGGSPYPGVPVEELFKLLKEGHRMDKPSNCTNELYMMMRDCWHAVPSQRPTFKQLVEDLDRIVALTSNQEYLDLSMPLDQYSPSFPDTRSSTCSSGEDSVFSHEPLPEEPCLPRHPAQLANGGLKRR
# Method: as §1, §2, §3, §4
# MKK1 = target: T13, MKK1 (Homo sapiens, UniProt Q02750)
# T13 construct: purchased Caliper Life Sciences
# T13 sequence (Q02750 whole entry, species assumed): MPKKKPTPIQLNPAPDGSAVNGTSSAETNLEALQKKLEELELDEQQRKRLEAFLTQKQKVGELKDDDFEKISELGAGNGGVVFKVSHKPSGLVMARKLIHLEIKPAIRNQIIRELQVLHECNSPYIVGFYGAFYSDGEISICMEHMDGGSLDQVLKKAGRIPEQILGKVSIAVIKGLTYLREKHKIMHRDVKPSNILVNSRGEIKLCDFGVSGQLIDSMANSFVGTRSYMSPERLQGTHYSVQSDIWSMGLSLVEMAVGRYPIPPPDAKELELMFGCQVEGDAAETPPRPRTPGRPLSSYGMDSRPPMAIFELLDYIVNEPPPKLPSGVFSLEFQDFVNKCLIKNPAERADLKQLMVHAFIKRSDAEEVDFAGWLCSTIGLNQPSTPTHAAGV
# Method: as §1, §2, §3, §4
# PRAK = target: T14, PRAK (Homo sapiens, UniProt Q8IW41)
# T14 construct: purchased Caliper Life Sciences
# Method: as §1, §2, §3, §4
# CSK = target: T15, CSK (Homo sapiens, UniProt P41240)
# T15 construct: purchased Caliper Life Sciences
# Method: as §1, §2, §3, §4
# DYRK3 = target: T16, DYRK3 (Homo sapiens, UniProt O43781)
# T16 construct: purchased Caliper Life Sciences
# Method: as §1, §2, §3, §4
# YES1 = target: T17, YES1 (Homo sapiens, UniProt P07947)
# T17 construct: purchased Caliper Life Sciences
# T17 sequence (P07947 whole entry, species assumed): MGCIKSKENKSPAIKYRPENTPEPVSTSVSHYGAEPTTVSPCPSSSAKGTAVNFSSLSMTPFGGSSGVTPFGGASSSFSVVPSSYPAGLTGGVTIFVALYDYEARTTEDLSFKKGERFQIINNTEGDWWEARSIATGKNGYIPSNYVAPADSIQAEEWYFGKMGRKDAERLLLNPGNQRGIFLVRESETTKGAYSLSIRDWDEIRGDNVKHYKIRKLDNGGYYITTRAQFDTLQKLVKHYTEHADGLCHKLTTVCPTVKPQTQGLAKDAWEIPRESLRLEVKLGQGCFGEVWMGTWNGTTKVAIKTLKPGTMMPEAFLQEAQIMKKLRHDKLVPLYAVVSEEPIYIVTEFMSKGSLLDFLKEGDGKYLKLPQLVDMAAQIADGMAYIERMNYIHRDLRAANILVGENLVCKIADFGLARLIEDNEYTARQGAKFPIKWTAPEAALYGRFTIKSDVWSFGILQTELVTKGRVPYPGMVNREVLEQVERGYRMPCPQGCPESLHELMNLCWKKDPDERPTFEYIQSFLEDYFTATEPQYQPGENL
# Method: as §1, §2, §3, §4
# SRC = target: T18, SRC (Homo sapiens, UniProt P12931)
# T18 construct: purchased Caliper Life Sciences
# Method: as §1, §2, §3, §4
# MAPKAP-K2 = target: T19, MAPKAP-K2 (Homo sapiens, UniProt P49137)
# T19 construct: purchased Caliper Life Sciences
# Method: as §1, §2, §3, §4
# MARK3 = target: T20, MARK3 (Homo sapiens, UniProt P27448)
# T20 construct: purchased Caliper Life Sciences
# Method: as §1, §2, §3, §4
# PKB-beta = target: T21, PKB-beta (Homo sapiens, UniProt P31751)
# T21 construct: purchased Caliper Life Sciences
# Method: as §1, §2, §3, §4
# MST2 = target: T22, MST2 (Homo sapiens, UniProt Q13188)
# T22 construct: purchased Caliper Life Sciences
# Method: as §1, §2, §3, §4
# MSK1 = target: T23, MSK1 (Homo sapiens, UniProt O75582)
# T23 construct: purchased Caliper Life Sciences
# T23 sequence (O75582 whole entry, species assumed): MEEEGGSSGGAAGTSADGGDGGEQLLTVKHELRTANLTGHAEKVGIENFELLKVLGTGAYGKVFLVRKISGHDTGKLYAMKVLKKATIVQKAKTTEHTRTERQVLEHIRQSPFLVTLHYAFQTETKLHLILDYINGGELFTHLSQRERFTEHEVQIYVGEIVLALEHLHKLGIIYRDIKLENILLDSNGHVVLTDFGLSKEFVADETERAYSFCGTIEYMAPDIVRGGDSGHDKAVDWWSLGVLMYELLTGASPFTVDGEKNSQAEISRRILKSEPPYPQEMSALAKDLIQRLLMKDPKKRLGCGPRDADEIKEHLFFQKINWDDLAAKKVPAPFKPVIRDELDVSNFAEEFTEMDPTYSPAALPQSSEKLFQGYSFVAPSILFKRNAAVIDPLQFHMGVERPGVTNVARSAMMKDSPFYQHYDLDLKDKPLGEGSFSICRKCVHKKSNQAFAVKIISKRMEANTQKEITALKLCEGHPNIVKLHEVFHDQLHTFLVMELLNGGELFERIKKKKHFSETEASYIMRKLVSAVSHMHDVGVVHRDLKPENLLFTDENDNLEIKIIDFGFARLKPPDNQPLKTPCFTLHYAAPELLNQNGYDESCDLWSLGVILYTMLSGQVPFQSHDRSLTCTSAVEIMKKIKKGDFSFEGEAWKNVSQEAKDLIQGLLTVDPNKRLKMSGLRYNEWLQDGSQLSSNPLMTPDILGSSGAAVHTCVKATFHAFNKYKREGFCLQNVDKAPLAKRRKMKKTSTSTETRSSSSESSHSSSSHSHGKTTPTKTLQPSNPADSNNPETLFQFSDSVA
# Method: as §1, §2, §3, §4
# PKC-alpha = target: T24, PKC-alpha (Homo sapiens, UniProt P17252)
# T24 construct: purchased Caliper Life Sciences
# Method: as §1, §2, §3, §4
# MAPK8 = tested on: MAPK8
# Method: as §1, §2, §3, §4
# CDK2/cyclin A = target: T25, CDK2/cyclin A (Homo sapiens, UniProt P24941)
# T25 construct: purchased Caliper Life Sciences
# Method: as §1, §2, §3, §4
# HIPK2 = target: T26, HIPK2 (Homo sapiens, UniProt Q9H2X6)
# T26 construct: purchased Caliper Life Sciences
# Method: as §1, §2, §3, §4
# AMPK = tested on: AMPK
# Method: as §1, §2, §3, §4
# MELK = target: T27, MELK (Homo sapiens, UniProt Q14680)
# T27 construct: purchased Caliper Life Sciences
# Method: as §1, §2, §3, §4
# SAPK2-beta = target: T28, SAPK2-beta (Homo sapiens, UniProt Q15759)
# T28 construct: purchased Caliper Life Sciences
# Method: as §1, §2, §3, §4
# PBK = target: T29, PBK (Homo sapiens, UniProt Q96KB5)
# T29 construct: purchased Caliper Life Sciences
# Method: as §1, §2, §3, §4
# IKK-beta = target: T30, IKK-beta (Homo sapiens, UniProt O14920)
# T30 construct: purchased Caliper Life Sciences
# Method: as §1, §2, §3, §4
# ROCK-II = target: T31, ROCK-II (Homo sapiens, UniProt O75116)
# T31 construct: purchased Caliper Life Sciences
# Method: as §1, §2, §3, §4
# CK2 = tested on: CK2
# Method: as §1, §2, §3, §4
SMILES,% inhibition MAPK1 (MAPK1) [%],% inhibition CHK1 (CHK1) [%],inhibition at 1 µM (IRR) [%],inhibition at 1 µM (IKK-epsilon) [%],% inhibition MST4 (MST4) [%],% inhibition PAK5 (PAK5) [%],% inhibition PAK4 (PAK4) [%],% inhibition MAPKAP-K1-alpha (MAPKAP-K1-alpha) [%],% inhibition PKC-zeta (PKC-zeta) [%],inhibition at 1 µM (SAPK2-alpha) [%],% inhibition PKD2 (PKD2) [%],% inhibition Pim-3 (Pim-3) [%],inhibition at 1 µM (FGFR1) [%],% inhibition MKK1 (MKK1) [%],% inhibition PRAK (PRAK) [%],inhibition at 1 µM (CSK) [%],inhibition at 1 µM (DYRK3) [%],inhibition at 1 µM (YES1) [%],inhibition at 1 µM (SRC) [%],% inhibition MAPKAP-K2 (MAPKAP-K2) [%],also measured
NC(=O)[C@H]1[C@H]2C[C@H]3[C@H]1Nc1nc(ncc1F)Nc1cccc(c1)CSS[C@@H]3C2 [Example 10],78,73,72,75,59,72,38,12,99,89,73,63,10,13,84,56,78,9,14,88,% inhibition MARK3 (MARK3): 74%; % inhibition PKB-beta (PKB-beta): 101%; % inhibition MST2 (MST2): 8%; % inhibition MSK1 (MSK1): 77%; % inhibition PKC-alpha (PKC-alpha): 56%; % inhibition MAPK8 (MAPK8): 9%; % inhibition CDK2/cyclin A (CDK2/cyclin A): 94%; inhibition at 1 µM (HIPK2): 23%; % inhibition AMPK (AMPK): 38%; % inhibition MELK (MELK): 36%; inhibition at 1 µM (SAPK2-beta): 81%; % inhibition PBK (PBK): 99%; inhibition at 1 µM (IKK-beta): 82%; inhibition at 1 µM (ROCK-II): 75%; % inhibition CK2 (CK2): 91%
"Fc1cnc2nc1NC1CCCC(C1)OC/C=C\COc1cccc(c1)N2 (single isomer, unassigned) [Example 33, (16Z)-6-fluoro-14,19-dioxa-2,4,8,26-tetraazatetracyclo[18.3.1.1˜3,7˜0.1˜9,13˜]hexacosa-1(24),3(26),4,6,16,20,22-heptaene]",91,98,69,91,89,92,81,56,104,76,78,84,74,71,80,86,99,49,58,100,% inhibition MARK3 (MARK3): 73%; % inhibition PKB-beta (PKB-beta): 85%; % inhibition MST2 (MST2): 61%; % inhibition MSK1 (MSK1): 96%; % inhibition PKC-alpha (PKC-alpha): 57%; % inhibition MAPK8 (MAPK8): 61%; % inhibition CDK2/cyclin A (CDK2/cyclin A): 60%; inhibition at 1 µM (HIPK2): 68%; % inhibition AMPK (AMPK): 76%; % inhibition MELK (MELK): 101%; inhibition at 1 µM (SAPK2-beta): 83%; % inhibition PBK (PBK): 89%; inhibition at 1 µM (IKK-beta): 78%; inhibition at 1 µM (ROCK-II): 79%; % inhibition CK2 (CK2): 96%
